From US12594263B2, “CBL inhibitors and compositions for expansion of immune cells” (Nurix Therapeutics, Inc., priority 2019, dated 2026)
“Also recorded” adds a separate entry of the source.

Legend:
[1] = system: E.G7-OVA tumors; test: Adoptive transfer of ex vivo expanded OT-1 cells into E.G7-OVA tumor-bearing mice: tumor volume and survival; format: in vivo, mouse
Method: Dead cells were removed (Miltenyi Biotec Cat #130-090-101) prior to transfer in vivo to monitor their trafficking and function in an EG.7 lymphoma model, which expresses the OVA antigen. Approximately five million cells per mouse were transferred to mice having an average tumor burden of about 70 mm^3. Following in vivo transfer of the OT-1 cells, antitumor response was monitored over time and the quality and quantity of immune response were assessed at various time points.
The expanded OT-1 cells were characterized by FACS analysis and transferred into E.G7-OVA mice, which bear ovalbumin (OVA) expressing tumors. Following in vivo transfer of expanded OT-1 cells, antitumor response was monitored over time and the quality and quantity of immune response was assessed at various time points. Analysis included FACS analysis on blood, tumor, and spleen samples. Analysis also included re-stimulation of splenocytes with OVA Class I peptide to evaluate the multifunctionality of the antigen-specific effector T cells.
On Day 0, E.G7-OVA cells were implanted into each mouse. On Day 5, approximately 5×10^6 in vitro expanded OT-1 cells were injected into the tail of each mouse. On Day 9, blood was analyzed by FACS. On Day 14, blood, tumor and spleen samples were analyzed by FACS. On Day 27, blood was analyzed by FACS. Tumor volume was measured approximately every five days through about 50 days post implant.

[2] = system: human tumor-infiltrating lymphocytes (TIL); test: Rapid Expansion Protocol (REP) of TIL; format: cell-based; conditions: alone or with IL-2 6000 IU/mL
Method: PBMC, OKT3 antibody (30 ng/mL), complete medium (“CM”), AIM V media (GIBCO/BRL), and TIL effector cells were combined, mixed, and aliquoted to a 75 cm^2 tissue culture flask. Flasks were incubated upright at 37° C. in 5% CO2. […] About 14 days after initiation of the REP, cells were harvested and cryopreserved for future experimental analysis.

[3] = system: human T cells from donor PBMC; test: Flow cytometry immunophenotyping of T cells expanded from donor PBMC; format: cell-based
From the text: At day eleven, cells were pooled and counted, and immunophenotyped at day 11 by flow cytometry by measuring expression of lineage (CD4, CD8) and differentiation (including CD45RA, CD45RO, CD95, CCR7, CD62L, TCF1, PD-1, TIM3, LAG3) markers.
T lymphocytes were defined based on lineage and differentiation marker expression according to the developmental model (Restifo, Blood, 124:476-477, 2014), as shown in Table 4.

[4] = system: OT-1 CD8+ T cells; test: Ex vivo expansion and immunophenotyping of OT-1 CD8+ T cells; format: cell-based, mouse; conditions: 1 μM, three days, plate-bound anti-CD3
From the text: Antigen specific T cells from transgenic mice can be leveraged as a model for CAR T or TIL expansion ex vivo with a Cbl inhibitor. The OT-1 transgenic animals, that are commercially available, have CD8 T cells that recognize OVA peptide aa 257-264 when presented by the MHC I molecule. CD8+ T cells from OT-1 mice were isolated from a single cell suspension of splenocytes by negative selection (StemCell Technologies cat #19853 EasySep™ Mouse CD8+ T Cell Isolation Kit). Cell were then resuspended in complete media (RPMI1640, 10% heat inactivated FBS, 1× Penicillin/Streptomycin, 1× Glutamine and β-mercaptoethanol) at concentration of 0.5×10^6 per mL. Six well tissue culture plates (Falcon) were coated with 2 ug/mL of anti-mouse CD3 (Bio Xcell Cat #BE0001-1-R100 mg InVivoMAb anti-mouse CD3ε Clone: 145-2C11) for >3 hrs at 37° C. and washed with PBS (MediaTech) prior to cell addition. […] Following three days of OT-1 T cell activation and expansion the cells were collected, counted and immunophenotyped by flow cytometry by measuring expression of differentiation and additional T cell makers including: CD3, CD4, CD8, CD45, CD25, Granzyme B, CD107a, CD127, PD-1, TIM3, LAG3, KLRG-1, ICOS, TCF1, Ki67, T-bet and FOXP3.

[5] = Compound stability in complete RPMI with 10% human serum (mass spectrometry); format: physicochemical
Method: To assess compound stability, at day 1, 1 μM compound 103 or DMSO was added to complete RMPI containing 10% human serum and stored at either 4° C., 22° C. or 37° C. over an 11 day time period. Concentration of compound 103 was assessed at each indicated timepoint and storage temperature by mass spectrometry. Compound 103 was stable for at least 11 days in RPMI medium (FIG. 33).

[6] = system: human tumor-infiltrating lymphocytes (TIL); test: Expansion of TIL ex vivo from human tumor fragments (pre-REP, 24-well plate); format: cell-based; conditions: for Percentage of total cell number relative to IL-2 alone on day 17: alone or with IL-2 6000 IU/mL
Method: Samples of human ovarian and colon tumors were obtained from the Cooperative Human Tissue Network (CHTN, c/o Vanderbilt University Medical Center, Nashville, Tenn.). Solid tumor specimens were carefully dissected free of surrounding fatty and necrotic areas. The tumors were sliced into 8 mm^3 (2×2×2 mm^3) fragments under sterile conditions using a scalpel and a scalpel holder.
The plates were placed in a humidified 37° C. incubator with 5% CO2. Half of the medium was replaced every two days after culture initiation. […] Subsequently, half the media was replaced thrice weekly, cultures were split to maintain a cell density of 1×10^6 cells/mL. […] Mitochondrial markers including, Mitotracker, Mitoprobe, and 2-NBDG may also be used to assess differentiation and/or activation of cells.

[7] = second study, anti-CD3 stimulated OT-1 cells

With `C[C@@H]1CN(Cc2cc3c(c(C(F)(F)F)c2)CN(c2cccc(C4(Cc5nncn5C)COC4)c2)C3=O)CCC1(F)F` [Compound 103] the “Anti-tumor phenotype of transferred T cells” value ([1]; 3-day ex vivo exposure, alone or in combination with IL-2) was “conferred a lasting anti-tumor phenotype for over a month”, the “Potency of expanded CD8+ OT-1 cells (tumor volume, FIGS. 11A and 11B)” value ([1]; expansion at 1 μM, IL-2 300 IU, E.G7-OVA mice) was “at least as potent as CD8+OT-1 cells expanded with IL-2” and the “Rejection of established tumors by expanded OT-1 cells (FIG. 9)” value ([1]; mice subcutaneously implanted with E.G7-OVA cells) was “potent effectors capable of rejecting established tumors”. The “Long-term survival (FIG. 12B)” value [1, 7] was “improved long-term survival”, the “Potency of expanded OT-1 cells, inhibition of tumor growth (FIG. 12A)” value [1, 7] was “increased potency compared to IL-2 expanded cells; also recorded: increased potency compared to TL-2 expanded cells” and the “Percentage of total cell number relative to IL-2 alone on day 42 (Pre-REP and REP)” value ([2]; TIL1 (ovary), 0.1 μM Cbl-i) was 40%. The “Percentage of total cell number relative to IL-2 alone on day 42 (Pre-REP and REP)” value ([2]; TIL1 (ovary), 1.0 μM Cbl-i) was 42%, the “Percentage of total cell number relative to IL-2 alone on day 42 (Pre-REP and REP)” value ([2]; TIL1 (ovary), 10 μM Cbl-i) was 32% and the “Percentage of total cell number relative to IL-2 alone on day 42 (Pre-REP and REP)” value ([2]; TIL3 (ovary), 1.0 μM Cbl-i) was 150%. The “Percentage of total cell number relative to IL-2 alone on day 42 (Pre-REP and REP)” value ([2]; TIL4 (colon), 0.1 μM Cbl-i) was 80%, the “Percentage of total cell number relative to IL-2 alone on day 42 (Pre-REP and REP)” value ([2]; TIL4 (colon), 1.0 μM Cbl-i) was 80% and the “Percentage of total cell number relative to IL-2 alone on day 42 (Pre-REP and REP)” value ([2]; TIL6 (ovary), 0.1 μM Cbl-i) was 51%. The “Percentage of total cell number relative to IL-2 alone on day 42 (Pre-REP and REP)” value ([2]; TIL6 (ovary), 1.0 μM Cbl-i) was 63%, the “Percentage of total cell number relative to IL-2 alone on day 42 (Pre-REP and REP)” value ([2]; TIL6 (ovary), 10 μM Cbl-i) was 49% and the “Percentage of CD8+ cells in culture” value ([3]; 1 μM Cbl inhibitor alone, versus IL-2 alone) was “higher percentages of CD8+ cells than those cultured in IL-2 alone”. For the same compound, the “Phenotype of human T cells expanded ex vivo” value ([3]; donor PBMC, Table 7) was “TSCM (CD45RA+, CD95+, CCR7+, CD62L+), TCM (CD45RO+, CD95+, CCR7+, CD62L+) or TEM (CD45RO+, CD95+, CCR7−, CD62L−) phenotype”, the “CD4 TsCM, percentage of total cell number on day 11” value ([3]; donor PBMC, 0.1 μM Cbl-i, alone or with IL-2) was 12% and the “Selective expansion of CD8+ T lymphocytes” value ([3]; donor PBMCs, FIGS. 2A and 2B) was “selectively expand CD8+ T lymphocytes from donor PBMCs”. The “Effector function of expanded OT-1 cells (granzyme and T-bet)” value [4] was “trend of increased effector function”, the “Stability in RPMI medium” value ([5]; 1 μM, complete RPMI with 10% human serum, 4° C., 22° C. or 37° C. (FIG. 33)) was “at least 11 days” and the “Stability at multiple temperatures (figure legend)” value ([5]; 4° C.-37° C., FIG. 33) was “stable at multiple temperatures (4° C.-37° C.) over an 11 day period”. The “Expansion of TIL in the absence of IL-2” value ([6]; 0.1-10 μM Cbl inhibitor, no IL-2) was “considerable expansion of TIL”, the “Percentage of total cell number relative to IL-2 alone on day 17” value ([6]; TIL1 (ovary), 0.1 μM Cbl-i) was 90% and the “Percentage of total cell number relative to IL-2 alone on day 17” value ([6]; TIL1 (ovary), 1.0 μM Cbl-i) was 75%. For the same compound, the “Percentage of total cell number relative to IL-2 alone on day 17” value ([6]; TIL1 (ovary), 10 μM Cbl-i) was 60%, the “Percentage of total cell number relative to IL-2 alone on day 17” value ([6]; TIL2 (ovary), 0.1 μM Cbl-i) was 30% and the “Percentage of total cell number relative to IL-2 alone on day 17” value ([6]; TIL2 (ovary), 1.0 μM Cbl-i) was 26%. For the same compound, the “Percentage of total cell number relative to IL-2 alone on day 17” value ([6]; TIL2 (ovary), 10 μM Cbl-i) was 22%, the “Percentage of total cell number relative to IL-2 alone on day 17” value ([6]; TIL3 (ovary), 0.1 μM Cbl-i) was 30% and the “Percentage of total cell number relative to IL-2 alone on day 17” value ([6]; TIL3 (ovary), 1.0 μM Cbl-i) was 43%. The “Percentage of total cell number relative to IL-2 alone on day 17” value ([6]; TIL3 (ovary), 10 μM Cbl-i) was 16%, the “Percentage of total cell number relative to IL-2 alone on day 17” value ([6]; TIL4 (colon), 0.1 μM Cbl-i) was 45% and the “Percentage of total cell number relative to IL-2 alone on day 17” value ([6]; TIL4 (colon), 1.0 μM Cbl-i) was 58%. The “Percentage of total cell number relative to IL-2 alone on day 17” value ([6]; TIL4 (colon), 10 μM Cbl-i) was 54%, the “Percentage of total cell number relative to IL-2 alone on day 17” value ([6]; TIL5 (ovary), 0.1 μM Cbl-i) was 50% and the “Percentage of total cell number relative to IL-2 alone on day 17” value ([6]; TIL5 (ovary), 1.0 μM Cbl-i) was 70%. For the same compound, the “Percentage of total cell number relative to IL-2 alone on day 17” value ([6]; TIL5 (ovary), 10 μM Cbl-i) was 90%, the “Percentage of total cell number relative to IL-2 alone on day 17” value ([6]; TIL6 (ovary), 0.1 μM Cbl-i) was 93% and the “Percentage of total cell number relative to IL-2 alone on day 17” value ([6]; TIL6 (ovary), 1.0 μM Cbl-i) was 87%. The “Percentage of total cell number relative to IL-2 alone on day 17” value ([6]; TIL6 (ovary), 10 μM Cbl-i) was 80%.
